Assay results taken from patent US20230111310A1, “CARBOXYLIC ACID DERIVATIVE-SUBSTITUTED IMINO ARYL COMPOUND, PREPARATION METHOD THEREFOR, HERBICIDAL COMPOSITION AND USE THEREOF” (Qingdao Kingagroot Chemical Compound Co., Ltd., priority 2020, published 2023).

Columns and labels:
Assay type in all cases: in vivo
[1] = system: Echinochloa crusgalli; assay: Weeding effect in post-emergence stage; conditions: Dose 15 g/ha; for Weeding effect in post-emergence stage, Echinochloa crusgalli: level of fresh weight growth control rate; for Weeding effect in post-emergence stage, Echinochloa crusgalli (level): fresh weight control rate level
Procedure, shortened: (§1)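 Pot-grown weeds were sprayed at the 2-3 leaf stage, 2 weeks after sowing, with compound in acetone plus Tween 80 and 1.5 liter/ha methyl oleate emulsifiable concentrate, diluted in water. Doses were 500, 250, 125, 60, 30, 15, 7.5 g/ha. Growth control was scored after 3 weeks in greenhouse; mean of three replicates.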

[2] = system: Digitaria sanguinalis; assay: Weeding effect in post-emergence stage; conditions: Dose 15 g/ha; for Weeding effect in post-emergence stage, Digitaria sanguinalis: level of fresh weight growth control rate; for Weeding effect in post-emergence stage, Digitaria sanguinalis (level): fresh weight control rate level
Procedure, shortened: as §1

[3] = system: Abutilon theophrasti; assay: Weeding effect in post-emergence stage; conditions: Dose 15 g/ha; for Weeding effect in post-emergence stage, Abutilon theophrasti: level of fresh weight growth control rate; for Weeding effect in post-emergence stage, Abutilon theophrasti (level): fresh weight control rate level
Procedure, shortened: as §1

[4] = system: Alopecurus japonicus; assay: Weeding effect in post-emergence stage; conditions: Dose 15 g/ha; for Weeding effect in post-emergence stage, Alopecurus japonicus: level of fresh weight growth control rate; for Weeding effect in post-emergence stage, Alopecurus japonicus (level): fresh weight control rate level
Procedure, shortened: as §1

[5] = system: Eleusine indica; assay: Weeding effect in post-emergence stage; conditions: Dose 15 g/ha; for Weeding effect in post-emergence stage, Eleusine indica: level of fresh weight growth control rate; for Weeding effect in post-emergence stage, Eleusine indica (level): fresh weight control rate level
Procedure, shortened: as §1

[6] = system: Setaria viridis; assay: Weeding effect in post-emergence stage; conditions: Dose 15 g/ha; for Weeding effect in post-emergence stage, Setaria viridis: level of fresh weight growth control rate; for Weeding effect in post-emergence stage, Setaria viridis (level): fresh weight control rate level
Procedure, shortened: as §1

[7] = system: cotton; assay: Pre-emergence stage, crop selectivity; conditions: 30 g/ha, 4 weeks
Protocol: (§2) The activity level criteria for plant damage (i.e., growth control rate) are as follows:
(§3) The aforementioned seeds of monocotyledonous and dicotyledonous weeds and main crops were put into a plastic pot loaded with soil and covered with 0.5-2 cm soil. The test compounds of the present invention was dissolved with acetone, then added with tween 80, diluted by a certain amount of water to reach a certain concentration, and sprayed immediately after sowing. The obtained seeds were incubated for 4 weeks in the greenhouse after spraying and the test results were observed. It was observed that the herbicide mostly had excellent effect at the application rate of 500, 250, 125, 60, 30, 15, 7.5 g/ha, especially to weeds such as Echinochloa crusgalli. Digitaria sanguinalis and Abutilon theophrasti, etc. And many compounds had good selectivity for corn, cotton, wheat, rice, soybean, and peanut etc. In addition, evaluate the weed control effect with the above activity standard level.

[8] = system: Soybeans; assay: Pre-emergence stage, crop selectivity; conditions: 30 g/ha, 4 weeks
Protocol: as §2, §3

[9] = system: Peanut; assay: Pre-emergence stage, crop selectivity; conditions: 30 g/ha, 4 weeks
Protocol: as §2, §3

[10] = system: corn; assay: Pre-emergence stage, crop selectivity; conditions: 30 g/ha, 4 weeks
Protocol: as §2, §3

[11] = system: Capsella bursa-pastoris; assay: Weeding effect in pre-emergence stage; conditions: 30 g/ha, 4 weeks
Protocol: as §2, §3

[12] = system: Descurainia sophia; assay: Weeding effect in pre-emergence stage; conditions: 30 g/ha, 4 weeks
Protocol: as §2, §3

[13] = system: Abutilon theophrasti; assay: Weeding effect in pre-emergence stage; conditions: 30 g/ha, 4 weeks
Protocol: as §2, §3

[14] = system: Amaranthus retroflexus; assay: Weeding effect in pre-emergence stage; conditions: 30 g/ha, 4 weeks
Protocol: as §2, §3

[15] = system: Setaria viridis; assay: Weeding effect in pre-emergence stage; conditions: 30 g/ha, 4 weeks
Protocol: as §2, §3

[16] = system: Veronica didyma Tenore; assay: Weeding effect in pre-emergence stage; conditions: 30 g/ha, 4 weeks
Protocol: as §2, §3

Compound	Weeding effect in post-emergence stage, Echinochloa crusgalli [1]	Weeding effect in post-emergence stage, Digitaria sanguinalis [2]	Weeding effect in post-emergence stage, Abutilon theophrasti [3]	Weeding effect in post-emergence stage, Alopecurus japonicus [4]	Weeding effect in post-emergence stage, Eleusine indica [5]	Weeding effect in post-emergence stage, Setaria viridis [6]	plant damage level Cotton [7]	plant damage level Soybeans [8]	plant damage level Peanut [9]	plant damage level Corn [10]	activity level (growth control rate) Capsella bursa-pastoris [11]	activity level (growth control rate) Descurainia sophia [12]	activity level (growth control rate) Abutilon theophrasti [13]	activity level (growth control rate) Amaranthus retroflexus [14]	activity level (growth control rate) Setaria viridis [15]	activity level (growth control rate) Veronica didyma Tenore [16]	Weeding effect in post-emergence stage, Echinochloa crusgalli (level) [1]	Weeding effect in post-emergence stage, Digitaria sanguinalis (level) [2]	Weeding effect in post-emergence stage, Abutilon theophrasti (level) [3]	Weeding effect in post-emergence stage, Alopecurus japonicus (level) [4]	also measured
CC/C(C)=N/OC(=O)[C@@H](C)O/N=C/c1cc(-n2c(=O)cc(C(F)(F)F)n(C)c2=O)c(F)cc1Cl [249(R)]	5 (Level 5: growth control rate is above 85%)	5 (Level 5: growth control rate is above 85%)	5 (Level 5: growth control rate is above 85%)	5 (Level 5: growth control rate is above 85%)	5 (Level 5: growth control rate is above 85%)	5 (Level 5: growth control rate is above 85%)	0 (Level 0: growth control rate is less than 5%)	0 (Level 0: growth control rate is less than 5%)	0 (Level 0: growth control rate is less than 5%)	0 (Level 0: growth control rate is less than 5%)	5 (Level 5: growth control rate is above 85%)	5 (Level 5: growth control rate is above 85%)	5 (Level 5: growth control rate is above 85%)	5 (Level 5: growth control rate is above 85%)	5 (Level 5: growth control rate is above 85%)	5 (Level 5: growth control rate is above 85%)					
COC(=O)C(C)(C)O/N=C/c1cc(-n2c(=O)cc(C(F)(F)F)n(C)c2=O)c(F)cc1Cl [Compound 433]							0 (Level 0: growth control rate is less than 5%)	0 (Level 0: growth control rate is less than 5%)	0 (Level 0: growth control rate is less than 5%)	0 (Level 0: growth control rate is less than 5%)	5 (Level 5: growth control rate is above 85%)	5 (Level 5: growth control rate is above 85%)	5 (Level 5: growth control rate is above 85%)	5 (Level 5: growth control rate is above 85%)	5 (Level 5: growth control rate is above 85%)	5 (Level 5: growth control rate is above 85%)	5 (Level 5: growth control rate is above 85%)	5 (Level 5: growth control rate is above 85%)	5 (Level 5: growth control rate is above 85%)	5 (Level 5: growth control rate is above 85%)	Weeding effect in post-emergence stage, Eleusine indica (level) [5]: 5 (Level 5: growth control rate is above 85%); Weeding effect in post-emergence stage, Setaria viridis (level) [6]: 5 (Level 5: growth control rate is above 85%)
COC(=O)[C@@H](C)O/N=C/c1cc(N2C(=O)CC(N)(C(F)(F)F)N(C)C2=O)c(F)cc1Cl (stereo partly drawn) [432(R)]							0 (Level 0: growth control rate is less than 5%)	0 (Level 0: growth control rate is less than 5%)	0 (Level 0: growth control rate is less than 5%)	0 (Level 0: growth control rate is less than 5%)	5 (Level 5: growth control rate is above 85%)	5 (Level 5: growth control rate is above 85%)	5 (Level 5: growth control rate is above 85%)	5 (Level 5: growth control rate is above 85%)	5 (Level 5: growth control rate is above 85%)	5 (Level 5: growth control rate is above 85%)	5 (Level 5: growth control rate is above 85%)	5 (Level 5: growth control rate is above 85%)	5 (Level 5: growth control rate is above 85%)	5 (Level 5: growth control rate is above 85%)	Weeding effect in post-emergence stage, Eleusine indica (level) [5]: 5 (Level 5: growth control rate is above 85%); Weeding effect in post-emergence stage, Setaria viridis (level) [6]: 5 (Level 5: growth control rate is above 85%)
C[C@@H](O/N=C/c1cc(-n2c(=O)cc(C(F)(F)F)n(C)c2=O)c(F)cc1Cl)C(=O)OCCF [216(R)]	5 (Level 5: growth control rate is above 85%)	5 (Level 5: growth control rate is above 85%)	5 (Level 5: growth control rate is above 85%)	4 (Level 4: growth control rate is greater than or equal to 60% and less than 85%)	5 (Level 5: growth control rate is above 85%)	5 (Level 5: growth control rate is above 85%)	0 (Level 0: growth control rate is less than 5%)	0 (Level 0: growth control rate is less than 5%)	0 (Level 0: growth control rate is less than 5%)	0 (Level 0: growth control rate is less than 5%)	5 (Level 5: growth control rate is above 85%)	5 (Level 5: growth control rate is above 85%)	5 (Level 5: growth control rate is above 85%)	5 (Level 5: growth control rate is above 85%)	5 (Level 5: growth control rate is above 85%)	5 (Level 5: growth control rate is above 85%)					
CC(C)OC(=O)[C@@H](C)O/N=C/c1cc(-n2c(=O)cc(C(F)(F)F)n(C)c2=O)c(F)cc1Cl [199(R)]	5 (Level 5: growth control rate is above 85%)	5 (Level 5: growth control rate is above 85%)	5 (Level 5: growth control rate is above 85%)	5 (Level 5: growth control rate is above 85%)	5 (Level 5: growth control rate is above 85%)	5 (Level 5: growth control rate is above 85%)	0 (Level 0: growth control rate is less than 5%)	0 (Level 0: growth control rate is less than 5%)	0 (Level 0: growth control rate is less than 5%)	0 (Level 0: growth control rate is less than 5%)	5 (Level 5: growth control rate is above 85%)	5 (Level 5: growth control rate is above 85%)	5 (Level 5: growth control rate is above 85%)	5 (Level 5: growth control rate is above 85%)	5 (Level 5: growth control rate is above 85%)	5 (Level 5: growth control rate is above 85%)					
